“And” between values parts separate entries of the source, which are not always exact repeats. Equal values may be shown once. Read-outs that look alike come from different tables or passages of the source.
How the values were obtained:
[1] = test system: cyclin K–eGFP degradation reporter; assay: Cyclin K reporter stability analysis (dual-color cyclin K–eGFP reporter); type: cell-based, human
In short: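 A 5 h treatment of HEK293T–Cas9 cells expressing the degradation reporter preceded flow cytometry; eGFP over mCherry, normalized to DMSO.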

HEK293T cells = assay: Drug sensitivity assay (CellTiter-Glo viability) with or without MLN4924 pretreatment; type: cell-based, human; conditions: Supplementary Table 2; for EC50: Homo sapiens, HEK-293T, HEK293T viability, 72 h, compound alone, read-out: Cellular assays EC50; for Toxicity rescue: MLN4924-mediated cytotoxicity rescue, 10 µM used where n.d.
In short: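 Luminescent ATP read-out (CellTiter-Glo) after 3 days of drug exposure, normalised to DMSO controls. Cells were HEK293T–Cas9, pretreated with 100 nM MLN4924 or DMSO for 2 h before drug dispensing.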

CDK12–cyclin K = CDK12–cyclin K (Homo sapiens, UniProt Q9NYV4); assay: Lanthascreen kinase binding assay, CDK12; conditions: for Lanthascreen raw signal, sheet CDK12: duplicates
Sequence of CDK12–cyclin K (Q9NYV4 713-1052): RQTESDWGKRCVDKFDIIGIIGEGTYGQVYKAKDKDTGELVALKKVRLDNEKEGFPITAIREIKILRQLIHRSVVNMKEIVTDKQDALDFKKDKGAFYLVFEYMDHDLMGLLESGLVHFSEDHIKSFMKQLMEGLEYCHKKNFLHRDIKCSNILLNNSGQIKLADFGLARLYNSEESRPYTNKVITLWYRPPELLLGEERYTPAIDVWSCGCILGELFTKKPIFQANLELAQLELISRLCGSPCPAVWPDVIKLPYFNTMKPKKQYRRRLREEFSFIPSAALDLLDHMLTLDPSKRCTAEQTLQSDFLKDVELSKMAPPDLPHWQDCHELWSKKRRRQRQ
Sequence of CDK12–cyclin K (O75909 1-267 partner limits assumed): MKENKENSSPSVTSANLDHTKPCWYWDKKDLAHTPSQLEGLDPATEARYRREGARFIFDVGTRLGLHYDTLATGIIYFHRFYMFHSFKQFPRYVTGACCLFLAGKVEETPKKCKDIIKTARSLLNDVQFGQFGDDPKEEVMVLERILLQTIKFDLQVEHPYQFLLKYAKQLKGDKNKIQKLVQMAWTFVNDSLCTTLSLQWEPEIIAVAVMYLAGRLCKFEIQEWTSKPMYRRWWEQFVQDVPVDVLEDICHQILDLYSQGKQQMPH
Method: Lanthascreen experiments were performed using commercially available reagents (Thermo Fisher) and according to the manufacturer’s instructions.

[2] = source data sheet correlations, read-out: DC50
[3] = Supplementary Table 2, read-out: Lanthascreen IC50 [nM] CDK12
[4] = compound 0.038147 nM, series r13
[5] = compound 0.152588 nM, series r13
[6] = compound 0.610352 nM, series r13
[7] = compound 9.76563 nM, series r13
[8] = compound 39.0625 nM, series r13

DC50 [1, 2]	IC50 (CDK12–cyclin K; [3])	Lanthascreen raw signal, sheet CDK12 (CDK12–cyclin K; compound 1.02544 nM, series r1)	Lanthascreen raw signal, sheet CDK12 (CDK12–cyclin K; compound 3.15521 nM, series r1)	Lanthascreen raw signal, sheet CDK12 (CDK12–cyclin K; compound 9.46563 nM, series r1)	Lanthascreen raw signal, sheet CDK12 (CDK12–cyclin K; compound 31.5521 nM, series r1)	Lanthascreen raw signal, sheet CDK12 (CDK12–cyclin K; compound 99.3891 nM, series r1)	Lanthascreen raw signal, sheet CDK12 (CDK12–cyclin K; compound 315.521 nM, series r1)	Lanthascreen raw signal, sheet CDK12 (CDK12–cyclin K; compound 3155.21 nM, series r1)	Lanthascreen raw signal, sheet CDK12 (CDK12–cyclin K; compound 10002 nM, series r1)	Lanthascreen raw signal, sheet CDK12 (CDK12–cyclin K; [4])	Lanthascreen raw signal, sheet CDK12 (CDK12–cyclin K; [5])	Lanthascreen raw signal, sheet CDK12 (CDK12–cyclin K; [6])	Lanthascreen raw signal, sheet CDK12 (CDK12–cyclin K; [7])	Lanthascreen raw signal, sheet CDK12 (CDK12–cyclin K; [8])	Lanthascreen raw signal, sheet CDK12 (CDK12–cyclin K; compound 156.25 nM, series r13)	Lanthascreen raw signal, sheet CDK12 (CDK12–cyclin K; compound 625 nM, series r13)	Lanthascreen raw signal, sheet CDK12 (CDK12–cyclin K; compound 2500 nM, series r13)	Structure (SMILES)	EC50 (HEK293T cells)	Toxicity rescue (HEK293T cells)	also measured
1 nM	25 nM	0.01046 and 0.009798	0.009054 and 0.008698	0.00642 and 0.008208	0.007402 and 0.006928	0.007817 and 0.006924	0.006025 and 0.005353	0.005515 and 0.005262	0.006527 and 0.0053									Cc1cc2nc(CNc3nc(N4CCN(C)CC4)nc4c(Br)cnn34)[nH]c2cc1C [DS73, reference compound]	2 nM	850%	
633 nM	> 10000 nM	0.009008 and 0.01048	0.01033 and 0.00928	0.007656 and 0.01097	0.008129 and 0.008647	0.008644 and 0.009455	0.008456 and 0.007711	0.008398 and 0.008586	0.01123 and 0.01167	0.0112 and 0.01094	0.01131 and 0.01094	0.0113 and 0.01155	0.01084 and 0.01176	0.01123 and 0.01099	0.01158 and 0.0119	0.01045 and 0.01083	0.01145 and 0.01174	O=C(CSc1nnc2c(n1)[nH]c1ccccc12)Nc1ccc(Cl)cn1 [dCeMM2]	1420 nM	398%	IC50 (CDK12–cyclin K; Lanthascreen, average, Extended Data Fig. 8, read-out: CDK12 IC50): > 10000 nM; Lanthascreen raw signal, sheet CDK12 (CDK12–cyclin K; compound 10000 nM, series r13): 0.01298 and 0.0125
	2670 nM	0.009603 and 0.009325	0.009514 and 0.008733	0.008364 and 0.009802	0.009806 and 0.008597	0.01036 and 0.01052	0.008735 and 0.009176	0.007612 and 0.007481	0.006896 and 0.007143	0.01104 and 0.01163	0.01112 and 0.01168	0.01247 and 0.01238	0.01196 and 0.01162	0.01144 and 0.01131	0.01124 and 0.01129	0.01063 and 0.01139	0.009917 and 0.009154	O=C(CSc1nc2ccccc2[nH]1)Nc1ccc(Cl)cn1 [dCeMM3]	> 10000 nM	0%	DC50 ([1]; Supplementary Table 2, HEK293T cycK-eGFP reporter, 5 h, read-out: Cellular assays DC50): > 10000 nM; Lanthascreen raw signal, sheet CDK12 (CDK12–cyclin K; compound 10000 nM, series r13): 0.007835 and 0.008247
